Laboratory results reported in paper PMC5841303, “In silico screening for human norovirus antivirals reveals a novel non-nucleoside inhibitor of the viral polymerase” (Scientific Reports, 2018).
Like-named read-outs stand apart in the source and are kept apart here.

Assays:
[1] = Observed compound solubility; type: physicochemical; conditions: assay conditions / 100% DMSO
Protocol: Therefore, they were counter-screened at 100 µM in a secondary gel-based assay (Supplementary Fig. S1).
To confirm RdRp inhibition and to exclude any potential false positives from the first fluorescence RdRp assay, the eight selected compounds (Fig. 4C) were then assessed using a gel-shift enzyme activity assay.
Dose-dependent inhibitory response curves were used to establish IC50 values for the five test compounds (Table 2). […] Therefore, 42b was too insoluble to attain a reliable confidence interval in the dose-response experiments and was not examined further. However, from the other four compounds, hit 11 and its phenyl derivative 54 gave the lowest IC50 values, 3–5 fold improved compared with 13 and its derivative 42a, confirming increased RdRp inhibitory activity associated with this scaffold.

[2] = molecular target: human norovirus Sydney 2012 RdRp (Norovirus GII.4 (Norwalk virus, human norovirus), UniProt K4L8Z7); assay: Fluorescent de novo RdRp activity assay (PicoGreen, poly(C) template); type: biochemical; conditions: for inhibition at 100 µM: read-out: inhibition of human norovirus RdRp activity, 100 µM
Protocol: The 62 compounds identified in silico were screened for inhibition of norovirus RdRp activity using an in vitro fluorescent, de novo RdRp assay. Compounds were tested at fixed concentrations of 10 µM and 100 µM, and compared to mock treated samples containing the vehicle only (0.5% DMSO [vol/vol]) (Fig. 4A,B). […] For certain compounds, significant insolubility was observed, coupled with either inherent fluorescence quenching (positive y-axis values on Fig. 4A,B) or enhancement of the fluorescence signal (negative y-axis values).
The newly synthesised compounds, including the re-prepared hit 13 and some synthesis intermediates (Table 1), were initially evaluated on norovirus Sydney 2012 RdRp activity in vitro using a quantitative fluorescent assay. Compounds were tested at a fixed concentration of 10 μM and compared to the relative activity of mock treated samples.
Recombinant calicivirus RdRps (GenBank accession numbers) norovirus GII.Pe/GII.4 Sydney 2012 (KT239579), MNV GV CW1 (DQ285629), RHDV Czech V351 (KF594473.1), and SaV GI.1 Mc114 (AY237422) were expressed and purified as described previously[60],[61]. RdRp resistance mutants were generated using the QuikChange site-directed mutagenesis kit (Agilent Technologies, Santa Clara, CA, USA) and confirmed by Sanger sequencing.
(§1) Fluorescent RdRp activity assays were carried out as previously described[14],[62]. Briefly, RdRp activity was quantified by monitoring the formation of double-stranded RNA (dsRNA) from a single stranded homopolymeric template, poly(C) (Sigma Aldrich, St Louis, MO, USA), using the fluorescent dye PicoGreen (Life Technologies, Carlsbad, CA, USA). RdRp assays were performed in 384-well plates, and each reaction mixture contained 400 ng enzyme, 45 µM GTP, 10 ng/µL poly(C) RNA, 2.5 mM MnCl2, 5 mM dithiothreitol, (DTT), 0.01% bovine serum albumin (BSA), and 0.005% Tween 20 in 20 mM Tris-HCl, pH 7.5, with a final reaction volume of 25 µL. The previous published norovirus NNI NIC02 was used as a positive control. RdRps were incubated for 10 mins at 30 °C in the presence of the test compounds or the compound vehicle DMSO (0.5% vol/vol) before addition into the reaction mixture, which was then allowed to run 15 min at 30 °C then terminated with 10 mM EDTA, followed by PicoGreen staining and dsRNA quantitation. GraphPad Prism V6.05 (La Jolla, CA, USA) was used to plot the IC50 values. In cases where fluorescent enhancement was recorded for a compound instead of inhibition, a secondary gel-based polymerase activity assay was used as a counter-screen as described below, to exclude the possibility of RdRp activity enhancement (Supplementary Fig. S1). Primed elongation activity was examined in a gel-based assay as previously described[16],[63] using the RNA template (PE44-NoV, Fig. 4D). Gels were imaged using BioRad (Hercules, CA, U.SA) Geldoc Universal Hood II, running BioRad Image Lab software, V4.1, build 16. Antagonism was calculated using Compusyn software V1.0[59]. 54 and PPNDS (4:1 ratio) were tested alone and together against norovirus Sydney 2012 RdRp.

[3] = test system: norovirus RdRp; assay: Counter-screen gel-shift RdRp assay (primed elongation of PE44-NoV template); type: biochemical, human norovirus; conditions: for inhibition of primed elongation activity (gel-shift): fixed concentration of 100 µM; for RdRp activity enhancement in gel-based counter-screen: 100 µM
Protocol: In this assay, a 32 nucleotide RNA template (PE44-NoV) is extended to 44 nucleotides in the presence of an active RdRp[16]. […] Inhibition of primed elongation of the PE44-NoV template was examined at a fixed concentration of 100 µM (Fig. 4D). In the absence of inhibition (0.5% DMSO vehicle only) the RNA template was extended to 44 nucleotides (Fig. 4D), evidenced by an upward gel shift and the appearance of the second, higher band.
as §1

[4] = test system: MNV; assay: MNV plaque reduction assay in cell culture; type: cell-based, murine norovirus
Protocol: As mentioned above, the only robust cellular assay available for the evaluation of potential norovirus inhibitors is the closely related MNV assay. […] Consequently, 54 was further assessed to determine the IC50 value against MNV RdRp activity using an in vitro fluorescent assay. […] 54 was then assessed for cytotoxicity against RAW264.7 mouse macrophage cells using a cell viability assay. […] Using the plaque reduction assay, the inhibitory effects of 54 (0.5–50 µM) were examined against MNV plaque formation in cell culture. […] Compound solubility and its cell-membrane permeability properties could be further improved with structure-activity relationship enhancement of the 54 scaffold to facilitate cellular uptake, and therefore to increase antiviral efficacy. Work on this aspect is ongoing, and it will be reported in due course.
MNV-1 (CW1) culture assays were performed as previously described. Replication was examined using plaque assays[58],[64],[65]. Cytotoxicity was examined using a CellTitre Blue (Promega, Madison, WI, USA) viability assay as described previously.

[5] = read-out: inhibition of norovirus Sydney 2012 RdRp activity, 10 µM, secondary screen of newly synthesised compounds
[6] = 10 µM, initial screen of purchased compounds
[7] = 100 µM, initial screen of purchased compounds
[8] = 10 µM, secondary screen of newly synthesised compounds
[9] = read-out: inhibition of human norovirus RdRp activity, 10 µM, initial screen of purchased compounds
[10] = initial screen of purchased compounds

## COC(=O)c1ccc(-c2ccc(/C=C3\SC(=O)N(CC(=O)Nc4ccccc4)C3=O)o2)cc1 [Compound 42b]
[1]
  solubility (observation): significant solubility issues
[2]; [5]
  inhibition at 10 µM: > 50%
[3]
  inhibition of primed elongation activity (gel-shift): near complete abolishment of norovirus RdRp activity

## COc1cccc(NC(=O)Cn2nc(C(F)(F)F)cc2C2CC2)c1 [AK-968/41925073]
[1]
  solubility (observation): precipitated heavily in 100% DMSO
[2]; [6]
  inhibition of human norovirus RdRp activity: over 25%
[2]; [7]
  inhibition of human norovirus RdRp activity: over 25%

## O=C(O)c1ccc2nc(-c3cccc(-c4nc5ccc(C(=O)O)cc5[nH]4)c3)[nH]c2c1 [AJ-077/33270018]
[1]
  solubility (observation): insolubility
[2]; [7]
  inhibition of human norovirus RdRp activity: apparent RdRp enhancement
[3]
  RdRp activity enhancement in gel-based counter-screen: not seen in the gel-based assay

## COC(=O)c1ccc(-c2ccc(/C=C3\SC(=O)N(CC(=O)N4CCOCC4)C3=O)o2)c(C)c1 [Compound 39d]
[2]; [8]
  inhibition of norovirus Sydney 2012 RdRp activity: complete loss of activity

## O=C(CN1C(=O)S/C(=C\c2ccc(-c3ccccc3)o2)C1=O)N1CCOCC1 [Compound 23a]
[2]; [8]
  inhibition of norovirus Sydney 2012 RdRp activity: complete loss of activity

## Cc1ccccc1-c1ccc(/C=C2\SC(=O)NC2=O)o1 [Compound 18c]
[2]; [8]
  inhibition of norovirus Sydney 2012 RdRp activity: lacked RdRp inhibitory activity

## COC(=O)c1ccc(-c2ccc(/C=C3\SC(=O)N(CC(=O)N4CCCCC4)C3=O)o2)c(C)c1 [Compound 24d]
[2]; [5]
  inhibition at 10 µM: 25%

## Cc1ccc(NC(=O)CSc2n[nH]c(-c3ccccc3O)n2)c(C)c1 [Compound 10]
[2]; [9]
  inhibition at 10 µM: > 25%
[2]; [10]
  inhibition at 100 µM: > 25%

## O=C(O)c1ccccc1-c1ccccc1C(=O)Nc1cccc(O)c1 [Compound 6]
[2]; [9]
  inhibition at 10 µM: > 25%
[2]; [10]
  inhibition at 100 µM: > 50%

## O=C1NC(=O)/C(=C/c2ccc(-c3ccccc3)o2)S1 [Compound 18a]
[2]; [8]
  inhibition of norovirus Sydney 2012 RdRp activity: lacked RdRp inhibitory activity

## CC(NC(=O)CCC(=O)Nc1ccccc1O)c1ccccc1 (stereo not drawn) [Compound 7]
[2]; [9]
  inhibition at 10 µM: > 25%
[2]; [10]
  inhibition at 100 µM: > 50%

## O=C(C1=C(O)C(=O)N(Cc2ccco2)C1c1cccc(O)c1)c1ccc2c(c1)OCCO2 (stereo not drawn) [Compound 8]
[2]; [9]
  inhibition at 10 µM: > 25%
[2]; [10]
  inhibition at 100 µM: > 25%

## O=C(Nc1ccc(O)c(-c2nc3ccccc3o2)c1)c1cccnc1 [AP-970/12851847]
[1]
  solubility (observation): insolubility
[2]; [7]
  inhibition of human norovirus RdRp activity: apparent RdRp enhancement
[3]
  RdRp activity enhancement in gel-based counter-screen: not seen in the gel-based assay

## COc1ccc(N2C(=O)c3ccc(C(=O)O)cc3C2=O)cc1NC(=O)c1ccccc1 [Compound 9]
[2]; [9]
  inhibition at 10 µM: > 25%
[2]; [10]
  inhibition at 100 µM: > 50%

## Cc1ccccc1-c1ccc(/C=C2\SC(=O)N(CC(=O)N3CCCCC3)C2=O)o1 [Compound 24c]
[2]; [8]
  inhibition of norovirus Sydney 2012 RdRp activity: loss of inhibitory activity

## Cc1ccc(N2NC(=O)/C(=C\c3ccc(-c4ccc(S(=O)(=O)Nc5ccccc5)cc4)o3)C2=O)cc1 [Compound 55]
[3]
  inhibition of primed elongation activity (gel-shift): minimal inhibition

## Cc1ccccc1-c1ccc(/C=C2\SC(=O)N(CC(=O)N3CCOCC3)C2=O)o1 [Compound 23c]
[2]; [8]
  inhibition of norovirus Sydney 2012 RdRp activity: complete loss of activity

## O=C(O)c1ccc(-c2ccc(/C=C3\SC(=O)N(CC(=O)N4CCOCC4)C3=O)o2)cc1 [Compound 28]
[2]; [5]
  inhibition at 10 µM: ~50%

## Cc1ccc(N2NC(=O)C(=Cc3ccc(-c4ccc(S(=O)(=O)Nc5nccs5)cc4)o3)C2=O)cc1 [Compound 11]
[2]
  IC50: 5 µM
[2]; [9]
  inhibition at 10 µM: > 25%
[2]; [10]
  inhibition at 100 µM: > 50%
[4]; 10 µM, read-out: inhibition of MNV plaque formation
  inhibition at 10 µM: 37.1%
[4]; 100 µM
  cytotoxicity seen in plaque assay: cytotoxic
[3]
  inhibition of primed elongation activity (gel-shift): complete inhibition

## COC(=O)c1ccc(-c2ccc(/C=C3\SC(=O)N(CC(=O)N4CCOCC4)C3=O)o2)cc1 [Compound 23b]
[2]; [8]
  inhibition of norovirus Sydney 2012 RdRp activity: complete loss of activity

## CCC(O)CC(C(=O)NNc1ccccc1)C(=O)NNc1ccccc1 (stereo not drawn) [AE-562/12222591]
[1]
  solubility (observation): precipitated heavily in 100% DMSO
[2]; [6]
  inhibition of human norovirus RdRp activity: over 25%
[2]; [7]
  inhibition of human norovirus RdRp activity: over 25%

## Cc1cc(C(=O)O)ccc1-c1ccc(/C=C2\SC(=O)N(CC(=O)N3CCOCC3)C2=O)o1 [Compound 13]
[2]
  IC50: 15 µM
[2]; [9]
  inhibition at 10 µM: > 25%
[2]; [10]
  inhibition at 100 µM: > 50%
[2]; [5]
  inhibition at 10 µM: 25%
[4]; 100 µM, read-out: inhibition of MNV plaque formation
  inhibition at 100 µM: 21%
[3]
  inhibition of primed elongation activity (gel-shift): complete inhibition

## Cc1cc(C(=O)O)ccc1-c1ccc(/C=C2\SC(=O)N(CC(=O)N3CCCCC3)C2=O)o1 [Compound 40e]
[2]; [8]
  inhibition of norovirus Sydney 2012 RdRp activity: abolished the activity

## C/C(=N\NC(=O)c1ccccc1O)c1ccc(O)cc1O [Compound 12]
[2]; [9]
  inhibition at 10 µM: > 25%
[2]; [10]
  inhibition at 100 µM: > 25%

## O=C(CN1C(=O)S/C(=C\c2ccc(-c3ccccc3)o2)C1=O)N1CCCCC1 [Compound 24a]
[2]; [8]
  inhibition of norovirus Sydney 2012 RdRp activity: loss of inhibitory activity

## O=C1NC(=O)/C(=C/c2ccc(-c3ccc(C(=O)O)cc3)o2)S1 [Compound 27]
[2]; [8]
  inhibition of norovirus Sydney 2012 RdRp activity: lacked RdRp inhibitory activity

## COC(=O)c1ccc(-c2ccc(/C=C3\SC(=O)N(CC(=O)N4CCCCC4)C3=O)o2)cc1 [Compound 24b]
[2]; [5]
  inhibition at 10 µM: 60%
[3]
  inhibition of primed elongation activity (gel-shift): no appreciable effect
